# Experimental data from patent publication US20130288956A1, “COMBINED PHARMACEUTICAL COMPOSITION AS ANTIFUNGAL AGENT” (priority 2010, published 2013).
# Legend:
# C. albicans = test: In vitro combination effects, checkerboard method by micro dilution (FIC index); assay type: cell-based, Candida albicans; conditions: C. albicans (20 strains); combination use with Test Compound 1
# Protocol: (§1) A clinically isolated strain retained by the Medical Mycology Research Center of Chiba University (Code No. IFM) and a clinically isolated strain retained by the Life Science Research Center of Gifu University (Code No. E) were used as Candida and Aspergillus strains.
# (§2) Fungus liquid obtained by static culturing at 35° C. for 48 hours in Sabouraud Dextrose liquid medium (SDB, Becton, Dickinson and Co.) was diluted with RPMI 1640 medium (Nissui Pharmaceutical Co., Ltd.) containing 0.165 M 3-(N-morpholino)propanesulfonic acid (MOPS) to prepare a fungus liquid having a fungus concentration of 1×10^3 cells/mL to 2×10^3 cells/mL.
# (§3) Test Compound 1 (0.0005 μg/mL to 1.56 μg/mL) in the horizontal rows (12 wells) of a 96-well flat-bottom plate, and an antifungal agent in the form of ravuconazole (0.0015 μg/mL to 6.25 μg/mL), fluconazole (0.008 μg/mL to 32 μg/mL), voriconazole (0.0002 μg/mL to 8 μg/mL), micafungin (0.0005 μg/mL to 0.25 μg/mL), caspofungin (0.0005 μg/mL to 1 μg/mL) or amphotericin B (0.008 μg/mL to 8 μg/mL) in the vertical rows (8 wells) of the flat-bottom plate were prepared by diluting so as to blend together using RPMI 1640 medium containing 0.165 M MOPS to obtain a control group, a single Test Compound 1 group, each one of antifungal agents groups and combination groups of Test Compound 1+each one of antifungal agents.
# (§4) The fungus liquids prepared in (1) were inoculated into the wells of 96-well flat-bottom plate containing 20 μL/well to 75 μL/well of the diluted test drug liquids prepared in (2) at 80 μL/well to 125 μL/well, followed by aerobically static culturing for 25 hours to 48 hours at 35° C.
# (§5) Combination effects of Test Compound 1 and the antifungal agents were measured with the checkerboard method by micro dilution.
# (§6) Interaction between both drugs was assessed by calculating the FIC index using the calculation formula indicated below.
# (§7) The FIC index was calculated for each combination of antifungal agent concentrations that inhibited fungal growth, and the minimum value of the resulting FIC index was used as a combination FIC index.
# (§8) A combination FIC index of 0.5 or less was evaluated as indicating synergistic action, that of 0.5 to 1 or less was evaluated as indicating additive action, and that of 1 to 4 or less was evaluated as indicating indifferent action.
# (§9) FIC Index=(MIC value of drug A during combination use/MIC value of drug A when used alone)+(MIC value of drug B during combination use/MIC value of drug B when used alone) (Calculation Formula)
# A. fumigatus = test: as above; assay type: cell-based, Aspergillus fumigatus; conditions: A. fumigatus (18 strains)
# Protocol: as §1
# (§10) An Aspergillus strain stored frozen at −80° C., or spores obtained by static culturing at 35° C. for 1 week in Potato Dextrose agar medium (PDA, Eiken Chemical Co., Ltd.) followed by scraping from the container with a metal loop, was diluted with RPMI 1640 medium containing 0.165 M MOPS to prepare a fungus liquid having a fungus concentration of 0.75×10^4 cells/mL to 1.33×10^4 cells/mL.
# as §3, §4, §5, §6, §7, §8, §9
# A. flavus = test: as above; assay type: cell-based, Aspergillus flavus; conditions: A. flavus (4 strains), Table 1
# Protocol: as §1, §10, §3, §4, §5, §6, §7, §8, §9
# [1] = test system: A. flavus strain IFM50915; test: A. flavus respiratory tract infection model; assay type: in vivo, mice; conditions: for Combined effects in mouse Aspergillus flavus infection model: combination with the test compound of the invention
# Protocol: (§11) Female DBA/2N mice (age 8 weeks, Charles River Laboratories Japan, Inc.) were subcutaneously administered 200 mg/kg of 5-fluorouracil 5 or 6 days prior to infection in order to put the mice into a compromised state.
# (§12) A. fumigatus strain IFM52108 and A. flavus strain IFM50915 were used.
# A liquid containing spores of A. flavus strain IFM50915 stored at −80° C. was thawed, and the number of spores was counted using a hemocytometer followed by diluting with sterile physiological saline containing 0.05% Tween 80 to a concentration of 0.6×10^6 cells/mL to 1.0×10^6 cells/mL to obtain an inoculation fungus liquid.
# (§13) 50 μl of inoculation fungus liquid were inoculated into the nasal cavities of 9-week-old mice at 0.3×10^5 cells/mouse to 1.25×10^5 cells/mouse under Ketalar anesthesia.
# (§14) 0.1 mL to 0.2 mL of each drug solution (dissolved in sterile physiological saline or 5% glucose solution, or dissolved in sterile physiological saline or 5% glucose solution containing 6.5% dimethylsulfoxide and 3.5% Tween 80) was administered to the individual and combination dose groups either into the peritoneal cavity or into the stomach using a gastric cannula corresponding to the administration route of the drug for 3 to 4 days at the rate of 1 to 2 times per day starting 0.5 hours to 1 hour after inoculation of fungus.
# (§15) There were 5 to 9 animals in each group.
# (§16) Infection protection results were assessed on survival rate 14 days after infection.
# C. tropicalis = test: In vitro combination effects, checkerboard method by micro dilution (FIC index); assay type: cell-based, Candida tropicalis; conditions: C. tropicalis (10 strains); combination use with Test Compound 1
# Protocol: as §1, §2, §3, §4, §5, §6, §7, §8, §9
# C. glabrata = test: as above; assay type: cell-based, Candida glabrata; conditions: for Ratio indicating Additive effect of combination use with Test Compound 1 / Ratio indicating Antagonistic effect of combination use with Test Compound 1 / Ratio indicating Indifferent effect of combination use with Test Compound 1 / Ratio indicating Synergistic effect of combination use with Test Compound 1: C. glabrata (10 strains)
# Protocol: as §1, §2, §3, §4, §5, §6, §7, §8, §9
# [2] = test system: A. fumigatus strain IFM52108; test: A. fumigatus respiratory tract infection model; assay type: in vivo, mice
# Protocol: as §11, §12
# A liquid containing spores of A. fumigatus strain IFM52108 stored at −80° C. was applied to Potato Dextrose agar medium (PDA, Eiken Chemical Co., Ltd.) followed by static culturing for 5 to 7 days at 35° C. and suspending in sterile physiological saline containing 0.05% Tween 80.
# The number of spores was counted using a hemocytometer, and the liquid was diluted with sterile physiological saline containing 0.05% Tween 80 to a concentration of 1.2×10^6 cells/mL to 2.5×10^6 cells/mL to obtain an inoculation fungus liquid.
# as §13, §14, §15, §16
Structure (SMILES),Ratio indicating Additive effect of combination use with Test Compound 1 (C. albicans),Ratio indicating Antagonistic effect of combination use with Test Compound 1 (C. albicans),Ratio indicating Indifferent effect of combination use with Test Compound 1 (C. albicans),Ratio indicating Synergistic effect of combination use with Test Compound 1 (C. albicans),Ratio indicating Additive effect of combination use with Test Compound 1 (A. fumigatus),Ratio indicating Antagonistic effect of combination use with Test Compound 1 (A. fumigatus),Ratio indicating Indifferent effect of combination use with Test Compound 1 (A. fumigatus),Ratio indicating Synergistic effect of combination use with Test Compound 1 (A. fumigatus),Ratio indicating Additive effect of combination use with Test Compound 1 (A. flavus),Ratio indicating Antagonistic effect of combination use with Test Compound 1 (A. flavus),Ratio indicating Indifferent effect of combination use with Test Compound 1 (A. flavus),Ratio indicating Synergistic effect of combination use with Test Compound 1 (A. flavus),Ratio indicating Additive effect of combination use with Test Compound 1 (C. tropicalis),Ratio indicating Antagonistic effect of combination use with Test Compound 1 (C. tropicalis),Ratio indicating Indifferent effect of combination use with Test Compound 1 (C. tropicalis),Ratio indicating Synergistic effect of combination use with Test Compound 1 (C. tropicalis),Ratio indicating Additive effect of combination use with Test Compound 1 (C. glabrata),Ratio indicating Antagonistic effect of combination use with Test Compound 1 (C. glabrata),Ratio indicating Indifferent effect of combination use with Test Compound 1 (C. glabrata),Ratio indicating Synergistic effect of combination use with Test Compound 1 (C. glabrata),also measured
"C[C@@H]1[C@H](O)[C@@H](C)/C=C/C=C/C=C/C=C/C=C/C=C/C=C/[C@H](O[C@@H]2O[C@H](C)[C@@H](O)[C@H](N)[C@@H]2O)C[C@@H]2O[C@](O)(C[C@@H](O)C[C@@H](O)[C@H](O)CC[C@@H](O)C[C@@H](O)CC(=O)O[C@H]1C)C[C@H](O)[C@H]2C(=O)O [Amphotericin B, amphotericin B]",85%,0%,10%,5%,33%,0%,67%,0%,25%,0%,75%,0%,90%,0%,10%,0%,70%,0%,0%,30%,"14-day survival rate ([1]; AMPH 0.5 mg/kg): 20%; 14-day survival rate ([1]; AMPH 1 mg/kg): 0%; Combined effects in mouse Aspergillus flavus infection model [1]: synergistic combined effects; Effect of combination use with Test Compound 1 (FIC index evaluation) (C. glabrata; Candida glabrata strain IFM46888, resistant to fluconazole): synergistic (A combination FIC index of 0.5 or less was evaluated as indicating synergistic action)"
"CC[C@H](C)C[C@H](C)CCCCCCCCC(=O)N[C@H]1C[C@@H](O)[C@@H](NCCN)NC(=O)[C@@H]2[C@@H](O)CCN2C(=O)[C@H]([C@H](O)CCN)NC(=O)[C@H]([C@H](O)[C@@H](O)c2ccc(O)cc2)NC(=O)[C@@H]2C[C@@H](O)CN2C(=O)[C@H]([C@@H](C)O)NC1=O [Caspofungin, caspofungin]",85%,0%,15%,0%,22%,0%,0%,78%,25%,0%,0%,75%,90%,0%,10%,0%,100%,0%,0%,0%,"14-day survival rate ([1]; CSFG 0.1 mg/kg, Table 5): 37.5%; 14-day survival rate ([1]; CSFG 0.2 mg/kg, Table 5): 50%; 14-day survival rate ([1]; CSFG 0.25 mg/kg, Table 4): 20%; 14-day survival rate ([1]; CSFG 0.5 mg/kg, Table 4): 60%; Combined effects in mouse Aspergillus flavus infection model [1]: synergistic combined effects"
"Nc1c(-c2cc(Cc3ccc(COc4ccccn4)cc3)no2)ccc[n+]1COP(=O)([O-])O [Test Compound 2, 2-amino-1-((phosphonooxy)methyl)-3-(3-((4-((2-pyridinyloxy)methyl)phenyl)methyl)-5-isoxazolyl)-pyridinium]",,,,,,,,,,,,,,,,,,,,,"14-day survival rate ([1]; Test Compound 2 2.5 mg/kg, Table 5 CSFG experiment): 0%; 14-day survival rate ([1]; Test Compound 2 5 mg/kg, Table 5 CSFG experiment): 50%; 14-day survival rate ([1]; Test Compound 2 5 mg/kg, Table 5 L-AmB experiment): 0%; 14-day survival rate ([1]; Test Compound 2 5 mg/kg, Table 5 MCFG experiment): 22.2%; 14-day survival rate ([1]; Test Compound 2 10 mg/kg, Table 5 MCFG experiment): 55.6%"
"OC(Cn1cncn1)(Cn1cncn1)c1ccc(F)cc1F [Fluconazole, fluconazole]",80%,0%,10%,10%,,,,,,,,,10%,0%,0%,90%,90%,0%,10%,0%,
"Nc1ncccc1-c1cc(Cc2ccc(COc3ccccn3)cc2)no1 [Test Compound 1, 3-(3-(4-(pyridin-2-yloxymethyl)-benzyl)-isoxazol-5-yl)-pyridin-2-ylamine]",,,,,,,,,,,,,,,,,,,,,"14-day survival rate ([2]; Test Compound 1 10 mg/kg, Table 3 MCFG experiment): 0%; 14-day survival rate ([2]; Test Compound 1 10 mg/kg, Table 3 RVCZ experiment): 0%; 14-day survival rate ([2]; Test Compound 1 10 mg/kg, Table 3 VRCZ experiment): 40%; 14-day survival rate ([2]; Test Compound 1 20 mg/kg, Table 3 MCFG experiment): 20%; 14-day survival rate ([2]; Test Compound 1 20 mg/kg, Table 3 RVCZ experiment): 20%; 14-day survival rate ([2]; Test Compound 1 20 mg/kg, Table 3 VRCZ experiment): 40%; 14-day survival rate ([1]; Test Compound 1 5 mg/kg, Table 4 AMPH experiment): 20%; 14-day survival rate ([1]; Test Compound 1 5 mg/kg, Table 4 MCFG experiment): 12.5%; 14-day survival rate ([1]; Test Compound 1 5 mg/kg, Table 4 RVCZ experiment): 20%; 14-day survival rate ([1]; Test Compound 1 8 mg/kg, Table 4 CSFG experiment): 0%; 14-day survival rate ([1]; Test Compound 1 10 mg/kg, Table 4 AMPH experiment): 60%; 14-day survival rate ([1]; Test Compound 1 10 mg/kg, Table 4 RVCZ experiment): 60%; 14-day survival rate ([1]; Test Compound 1 16 mg/kg, Table 4 CSFG experiment): 80%"
